Reference: patent US20070213303A1, “Methods for reducing platelet activation and for the treatment of thrombotic events” (priority 2005, published 2007)

Columns and labels:
Format in all cases: cell-based, human
platelets = experiment: Conventional platelet aggregation induced by collagen
Experimental: Trisodium citrate (3.8%) and whole blood is immediately mixed in a 1:9 ratio, and then centrifuged at 1200 g for 2.5 minutes, to obtain platelet-rich plasma (PRP), which is kept at room temperature for use within 1 hour for platelet aggregation studies. Platelet count is determined in each PRP sample with a Coulter Counter ZM (Coulter Co., Hialeah, Fla.). Platelet numbers are adjusted to 3.50×10^8/ml for aggregation with homologous platelet-poor plasma. PRP and whole blood aggregation tests are performed simultaneously. Whole blood is diluted 1:1 with the 0.5 ml PBS, and then swirled gently to mix. The cuvette with the stirring bar is placed in the incubation well and allowed to warm to 37° C. for 5 minutes. Then the samples are transferred to the assay well. An electrode is placed in the sample cuvette. […] All agonists are obtained, e.g., from Chronolog Corporation (Hawertown, Pa.). Platelet aggregation studies are performed using a Chrono-Log Whole Blood Lumi-Aggregometer (model 560-Ca). Platelet aggregability is expressed as the percentage of light transmittance change from baseline using platelet-poor plasma as a reference at the end of recording time for plasma samples, or as a change in electrical impedance for whole blood samples. Aggregation curves are recorded for 4 minutes and analyzed according to internationally established standards using Aggrolink® software.
The effect of doses (15 μg/ml to 90 μg/ml) of Compound A on in vitro platelet characteristics in subjects with multiple factors for vascular disease was tested.
The in vitro effects of pre-incubation with escalating concentrations of Compound A on platelet aggregation, and expression of major surface receptors by flow cytometry, were assessed in 20 aspirin naïve volunteers with multiple risk factors for vascular disease.

CD41a = experiment: Flow cytometry, platelet surface expression of CD41a
Experimental: (§1) Venous blood (8 ml) is collected in a plastic tube containing 2 ml of acid-citrate-dextrose (ACD) (7.3 g citric acid, 22.0 g sodium citrate.2H2O and 24.5 glucose in 1000 ml distilled water) and mixed well. The blood-ACD mixture is centrifuged at 1000 r.p.m. for 10 minutes at room temperature. The upper ⅔ of the platelet-rich plasma (PRP) is then collected and adjusted to pH=6.5 by adding ACD. The PRP is then centrifuged at 3000 r.p.m. for 10 minutes. The supernatant is removed and the platelet pellet is gently resuspended in 4 cc of the washing buffer (10 mM Tris/HCl, 0.15 M NaCl, 20 mM EDTA, pH=7.4). Platelets are washed in the washing buffer, and in TBS (10 mM Tris, 0.15 M NaCl, pH=7.4). All cells are then divided into the appropriate number of tubes. By way of example, if 9 different surface markers are evaluated, as described herein, then the cells should be divided into ten tubes, such that nine tubes containing washed platelets are incubated with 5 μl fluorescein isothiocyanate (FITC)-conjugated antibodies in the dark at +4° C. for 30 minutes, and one tube remains unstained and serves as a negative control. Surface antigen expression is measured with monoclonal murine anti-human antibodies, such as CD9 (p24); CD41a (IIb/IIIa, aIIbb3); CD42b (Ib); CD61(IIIa) (DAKO Corporation, Carpinteria, Calif.); CD49b (VLA-2, or a2b1); CD62p (P-selectin); CD31 (PECAM-1); CD 41b (IIb); and CD51/CD61 (vitronectin receptor, avb3) (PharMingen, San Diego Calif.), as the expression of these antigens on the cells is associated with platelet activation. After incubation, the cells are washed with TBS and resuspended in 0.25 ml of 1% paraformaldehyde. Samples are stored in the refrigerator at +4° C., and analyzed on a Becton Dickinson FACScan flow cytometer with laser output of 15 mw, excitation at 488 nm, and emission detection at 530±30 nm. The data can be collected and stored in list mode, and then analyzed using CELLQuest® software. FACS procedures are described in detail in, e.g., Gurbel, P. A. et al., J Amer Coll Cardiol 31: 1466-1473 (1998); Serebruany, V. L. et al., Am Heart J 136: 398-405 (1998); Gurbel, P. A. et al., Coron Artery Dis 9: 451-456 (1998) and Serebruany, V. L. et al., Arterioscl Thromb Vasc Biol 19: 153-158 (1999).
(§2) Four cc of blood is collected in a tube, containing 2 cc of acid-citrate-dextrose (ACD; 7.3 g citric acid, 22.0 g sodium citrate.2H2O and 24.5 glucose in 1000 ml distilled water) and mixed well. The buffer, TBS (10 mM Tris, 0.15 M NaCl, pH 7.4) and the following fluorescein isothiocyanate (FITC) conjugated monoclonal antibodies (PharMingen, San Diego, Calif., USA, and DAKO, Calif., USA) are removed from a refrigerator and allowed to warm at room temperature (RT) prior to their use. The non-limiting examples of antibodies that can be used include CD41 (IIb/IIIa), CD31 (PECAM-1), CD62p (P-selectin), and CD51/61 (Vitronectin receptor). For each subject, six amber tubes (1.25 ml) are one Eppendorf tube (1.5 ml) are obtained and marked appropriately 450 μl of TBS buffer is pipetted to the labeled Eppendorf tube. A patient's whole blood tube is inverted gently twice to mix, and 50 μl of whole blood is pipetted to the appropriately labeled Eppendorf tube. The Eppendorf tube is capped and the diluted whole blood is mixed by inverting the Eppendorf tube gently two times, followed by pipetting 50 μl of diluted whole blood to each amber tube. […] The samples are analyzed on a Becton Dickinson FACScan flow cytometer. […]

P-selectin (CD62p) = experiment: Flow cytometry, platelet surface expression of CD62p
Experimental: as §1, §2

CD40-ligand (CD154) = experiment: Flow cytometry, platelet surface expression of CD154
Experimental: as §1, §2

PAR-1 (WEDE15) = experiment: Flow cytometry, PAR-1 thrombin receptor expression (WEDE15)
Experimental: as §1, §2

Structure (SMILES): CC(C)(Sc1cc(C(C)(C)C)c(O)c(C(C)(C)C)c1)Sc1cc(C(C)(C)C)c(OC(=O)CCC(=O)O)c(C(C)(C)C)c1 [Compound A]
- collagen-induced aggregation (platelets): little or no effect
- Conventional platelet aggregation, Collagen 5 μg/ml (platelets; preincubation 15 μg/mL): 64.95 ± 5.1%
- Conventional platelet aggregation, Collagen 5 μg/ml (platelets; preincubation 30 μg/mL): 65.6 ± 8.7%
- Conventional platelet aggregation, Collagen 5 μg/ml (platelets; preincubation 60 μg/mL): 66.6 ± 6.8%
- Conventional platelet aggregation, Collagen 5 μg/ml (platelets; preincubation 90 μg/mL): 65.5 ± 6.0%
- Flow cytometry CD41a (CD41a; preincubation 15 μg/mL): 185.3 ± 21.3
- Flow cytometry CD41a (CD41a; preincubation 30 μg/mL): 170.3 ± 16.7
- Flow cytometry CD41a (CD41a; preincubation 60 μg/mL): 165.5 ± 16.7
- Flow cytometry CD41a (CD41a; preincubation 90 μg/mL): 160.9 ± 23.2
- Surface platelet expression of GP IIb/IIIa (CD41a) antigen (CD41a; pretreated samples): decreased
- P-selectin (CD62p) (P-selectin (CD62p)): little or no effect
- Flow cytometry CD62p (P-selectin (CD62p); preincubation 15 μg/mL): 9.8 ± 1.8
- Flow cytometry CD62p (P-selectin (CD62p); preincubation 30 μg/mL): 10.2 ± 1.9
- Flow cytometry CD62p (P-selectin (CD62p); preincubation 60 μg/mL): 10.5 ± 1.8
- Flow cytometry CD62p (P-selectin (CD62p); preincubation 90 μg/mL): 9.7 ± 1.8
- CD40-ligand (CD154) (CD40-ligand (CD154)): little or no effect
- Flow cytometry CD154 (CD40-ligand (CD154); preincubation 15 μg/mL): 6.6 ± 1.0
- Flow cytometry CD154 (CD40-ligand (CD154); preincubation 30 μg/mL): 6.7 ± 0.9
- Flow cytometry CD154 (CD40-ligand (CD154); preincubation 60 μg/mL): 6.8 ± 1.1
- Flow cytometry CD154 (CD40-ligand (CD154); preincubation 90 μg/mL): 7.0 ± 1.1
- Flow cytometry PAR-1 (WEDE15) (PAR-1 (WEDE15); preincubation 15 μg/mL): 40.6 ± 5.5
- Flow cytometry PAR-1 (WEDE15) (PAR-1 (WEDE15); preincubation 30 μg/mL): 36.1 ± 4.7
- Flow cytometry PAR-1 (WEDE15) (PAR-1 (WEDE15); preincubation 60 μg/mL): 37.7 ± 5.5
- Flow cytometry PAR-1 (WEDE15) (PAR-1 (WEDE15); preincubation 90 μg/mL): 34.3 ± 5.2
- PAR-1 thrombin receptor expression, active epitope (PAR-1 (WEDE15); pretreated samples): reduced
